From ChEMBL document CHEMBL1201862, “PubChem BioAssay data set” (2004) come the findings set out here.

SMILES strings stand for the structures.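 Assay format: 96-well plates, 48-hour exposure. GI50: concentration for 50% inhibition of growth.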 Activity calls are given as the source filed them. No stated cut-off is given here; in the data, active = GI50 up to about 1.1 µM and inactive = higher. A value given as a limit tells only on which side of the number the result lay.

What all share (experiment): growth of human tumour cells (NCI), 48 h
The test system of test [1] is SK-MEL-28.
Test [2] has as its system NCI-H460.
The subject of test [3] is MDA-N.
Test [4] concerns SF-268.
The test system of test [5] is NCI-H23.
For test [6], the system named is CCRF-CEM.
Test [7] has as its system HT-29.
The subject of test [8] is MDA-MB-231.
Test [9] deals with COLO 205.
Test [10] deals with HOP-92.
The test system of test [11] is OVCAR-8.
Test [12] concerns SW-620.
For test [13], the system named is UACC-257.
For test [14], the system named is HCT-15.
Test [15] concerns IGROV-1.
Test [16] deals with OVCAR-5.
Test [17] deals with HL-60.
Test [18] relates to Malme-3M.
Test [19] deals with M14.
Test [20] has as its system A498.

As for `COC(=O)C1Cc2c([nH]c3ccccc23)-c2[nH]c3ccccc3c2CC(NC(C)=O)C(=O)NCC(=O)N1` (stereo not given), the GI50 in [1], in test [2], in test [3], in test [4], in test [5] and in test [6] was > 100 µM (inactive) each time. The GI50 is > 100 µM (inactive) in test [7]; > 100 µM (inactive) in test [8]; > 100 µM (inactive) in test [9]; 77.4 µM (inactive) in test [10]; > 100 µM (inactive) in [11]; > 100 µM (inactive) in test [12]. In addition, the GI50 in test [13] was > 100 µM (inactive); in test [14], over 100 µM; in test [15] it was 0.914 µM (active); in test [16], > 100 µM (inactive).

Take `COc1cc(C=C2C(=O)NC(=S)NC2=O)cc(OC)c1OC`: the GI50 in test [1], in test [2], in test [17], in [3], in test [4] and in test [5] was > 100 µM (inactive) in each case. Besides, the GI50 in test [6], in test [18], in test [7], in [8], in test [19] and in [9] was > 100 µM (inactive) in each case. Moreover, the GI50 in [10] was > 100 µM (inactive); in [11], > 100 µM (inactive); in [12], > 100 µM (inactive); in [13], > 100 µM (inactive); in test [14], over 100 µM; in test [15] it was > 100 µM (inactive). Besides, the GI50 in test [16] is > 100 µM (inactive).

As for `CC(=O)Oc1c(-c2ccccc2)sc2ccccc12`, the GI50 in [1] was 21.3 µM (inactive); in test [2] it was 14.5 µM (inactive); in test [17], 18 µM (inactive); in [4], 23 µM (inactive); in [5], 15.1 µM (inactive); in [6], 18 µM (inactive). In addition, the GI50 in test [18] is 18.2 µM (inactive); in [7] it was 20.3 µM (inactive); in test [8], 14 µM (inactive); in test [19], > 10 µM (inactive); in [9], 15.6 µM (inactive); in test [20], 17.8 µM (inactive). In addition, the GI50 in test [10] is 15.1 µM (inactive); in test [11], 27.2 µM (inactive); in [12], 36.1 µM (inactive); in [13], 12.5 µM (inactive); in test [14] it was 16.6 µM; in test [15], 15.3 µM (inactive). Further, in test [16], the GI50 was 29.2 µM (inactive).

Regarding `Cc1n[nH]c(=O)n1/N=C/c1ccc([N+](=O)[O-])o1`, the GI50 in [1] is 11.2 µM (inactive); in test [2] it was 14.3 µM (inactive); in test [4], 17.4 µM (inactive); in test [5], 13.8 µM (inactive); in [6], 13.5 µM (inactive); in test [18], 4.65 µM (inactive). For the same compound, the GI50 is 12.9 µM (inactive) in test [7]; 18.2 µM (inactive) in test [8]; 11.6 µM (inactive) in [19]; 8.59 µM (inactive) in test [9]; 22.1 µM (inactive) in [20]; 15.2 µM (inactive) in test [11]. Besides, the GI50 in [12] was 13.9 µM (inactive); in test [13], 13 µM (inactive); in test [14], 7.01 µM; in test [16], 21.4 µM (inactive).

As for `O=C1CS(=O)(=O)C(c2cccc(Oc3ccccc3)c2)N1c1cccc(Cl)c1` (stereo not given), the GI50 in test [1] was 36.6 µM (inactive); in test [2], 18.1 µM (inactive); in test [17] it was 30 µM (inactive); in test [3], 16.6 µM (inactive); in [4], 23.2 µM (inactive); in test [5], 33.5 µM (inactive). In addition, the GI50 in test [6] is 26.1 µM (inactive); in [18], 20 µM (inactive); in test [7], 28.6 µM (inactive); in [8] it was 29.1 µM (inactive); in [19], 26.7 µM (inactive); in [9], 18.8 µM (inactive). The GI50 in [10] was 11.6 µM (inactive); in test [11] it was 22.1 µM (inactive); in [12], 24.8 µM (inactive); in test [13] it was 17.1 µM (inactive); in test [14], 22.1 µM; in test [15], 19.1 µM (inactive). Moreover, in test [16], the GI50 was 55.1 µM (inactive).

Regarding `c1ccc2c(c1)cc1n2CCc2c-1[nH]c1ccccc21`, the GI50 in test [1], in [2], in test [17], in test [3], in test [4] and in test [5] was > 10 µM (inactive) throughout. In addition, the GI50 in test [6], in test [18], in test [7], in test [8], in test [19] and in test [9] was > 10 µM (inactive) throughout. Moreover, the GI50 was > 10 µM (inactive) in test [10]; > 10 µM (inactive) in test [11]; > 10 µM (inactive) in test [12]; > 10 µM (inactive) in test [13]; 5.12 µM in [14]; > 10 µM (inactive) in [15]. In addition, the GI50 in [16] is > 10 µM (inactive).

On to `CCN1C(=O)C(=C/C=C/c2ccc([N+](=O)[O-])cc2)C(=O)N(CC)C1=S`, for which the GI50 in test [1] was 18 µM (inactive); in [2], 61.8 µM (inactive); in test [17], 82.6 µM (inactive); in [3] it was 24.4 µM (inactive); in test [4], 19.3 µM (inactive); in test [5] it was 18.2 µM (inactive). Also, the GI50 in test [6] was 31.8 µM (inactive); in test [7], 19.7 µM (inactive); in test [8], 21.3 µM (inactive); in test [19] it was 29 µM (inactive); in test [9], 35.1 µM (inactive); in test [10] it was 18.3 µM (inactive). The GI50 in [11] was 20.9 µM (inactive); in test [12] it was 19.1 µM (inactive); in test [13], 17.6 µM (inactive); in test [14], 29.5 µM; in test [15], 15.1 µM (inactive); in [16], > 100 µM (inactive).

In the case of `CC(=O)NC1C(OC2C(CO)OC(OCC3OC(n4ccc(N)nc4=O)C(O)C3O)C(NC(C)=O)C2O)OC(CO)C(O)C1O` (stereo not given), the GI50 in test [1] was > 100 µM (inactive); in [2] it was > 89.3 µM (inactive); in test [17] it was > 34.6 µM (inactive); in [4] it was > 100 µM (inactive); in test [5] it was 97.9 µM (inactive); in test [6], 12.1 µM (inactive). For the same compound, the GI50 in test [18] is 5.97 µM (inactive); in test [7], > 100 µM (inactive); in [8], > 100 µM (inactive); in [19], > 100 µM (inactive); in [9], > 100 µM (inactive); in [20], > 100 µM (inactive). In addition, the GI50 in test [10] was > 100 µM (inactive); in test [11], > 91.2 µM (inactive); in [12], > 100 µM (inactive); in test [13] it was > 100 µM (inactive); in [14] it was over 100 µM; in [15], > 100 µM (inactive). Further, in [16], the GI50 is > 100 µM (inactive).

In the case of `CC(C)C1/C(=N/O)CC(c2ccccc2)N(N=O)C1c1ccccc1` (stereo not given), the GI50 in test [1] is 50.1 µM (inactive); in test [2], 24.7 µM (inactive); in [17], 32.1 µM (inactive); in [3], 39.2 µM (inactive); in test [4], 51.8 µM (inactive); in test [5], 47.1 µM (inactive). For the same compound, the GI50 was 26.9 µM (inactive) in [6]; 23 µM (inactive) in [18]; 21.2 µM (inactive) in test [7]; 81.3 µM (inactive) in test [8]; 40.7 µM (inactive) in [19]; 16.9 µM (inactive) in [9]. In addition, the GI50 in [10] was 33.7 µM (inactive); in [11], 57 µM (inactive); in test [12], 40.6 µM (inactive); in test [13], 40.7 µM (inactive); in test [14] it was 40.6 µM; in test [15], 68.2 µM (inactive).

For the compound `Cc1ccc(O)c(C(=O)/C=C/c2ccccc2)c1`, the GI50 in test [1] was > 100 µM (inactive); in [2] it was > 100 µM (inactive); in [17] it was 23.1 µM (inactive); in test [3] it was > 100 µM (inactive); in test [4], > 100 µM (inactive); in [5], > 100 µM (inactive). Besides, the GI50 in test [6], in [7], in test [8], in test [19], in test [9] and in test [10] was > 100 µM (inactive) throughout. The GI50 in test [11] is > 100 µM (inactive); in test [12], > 100 µM (inactive); in test [13], > 100 µM (inactive); in [14], over 100 µM; in test [15] it was > 100 µM (inactive); in [16], > 100 µM (inactive).

With `C[C@]12CCC(=O)C=C1CC[C@@H]1[C@@H]2CC[C@]2(C)C(=O)/C(=C/c3ccncc3)C[C@@H]12`, the GI50 is 20 µM (inactive) in test [1]; 12.3 µM (inactive) in test [2]; 8.51 µM (inactive) in [17]; 20.1 µM (inactive) in [3]; 18.8 µM (inactive) in test [4]; 18.3 µM (inactive) in [5]. In addition, the GI50 was 14.7 µM (inactive) in [6]; 15.7 µM (inactive) in [18]; 10.2 µM (inactive) in [7]; 15.2 µM (inactive) in test [8]; 14.6 µM (inactive) in test [19]; 13.2 µM (inactive) in test [9]. The GI50 in test [10] is 19.1 µM (inactive); in test [11], 23.3 µM (inactive); in test [12], 23.8 µM (inactive); in test [13] it was 13.4 µM (inactive); in [14], 15.3 µM; in [15], 21.2 µM (inactive). For the same compound, in test [16], the GI50 was 16.9 µM (inactive).
